Where a SMILES comes first, the peptide text is derived from it. The star is where a group is joined. Cbz = O=C(OCc1ccccc1)*

The values that follow come from patent US11712439B2, “Methods and materials for identifying and treating bet inhibitor-resistant cancers” (Mayo Foundation for Medical Education and Research, priority 2017, dated 2023).

In one test the test system is BRD2/3/4. Briefly: Western blot and RT-qPCR of BRD2/3/4 in inhibitor-treated LNCaP cells. Format: cell-based, human. The following applies: 8 hours, Bortezomib 200 nM, MG132 20 μM; for BRD2/3/4 protein level: MLN4924 200 nM. The procedure: (§1) Cell lysates or immunoprecipitates were subjected to SDS-PAGE, and proteins were transferred to nitrocellulose membranes (GE Healthcare Sciences). The membranes were blocked in Tris-buffered saline (TBS, pH 7.4) containing 5% non-fat milk and 0.1% Tween-20, washed twice in TBS containing 0.1% Tween-20, and incubated with primary antibody overnight at 4° C., followed by secondary antibody for 1 hour at room temperature. The proteins of interest were visualized using ECL chemiluminescence system (Santa Cruz Biotechnology). Densitometry analysis of protein bands was analyzed on the Gel-Pro Analyzer software.
Total RNA was isolated from transiently transfected cells using the Trizol reagent (Thermo Fisher Scientific), and cDNA was reverse-transcribed using the Superscript RT kit (TOYOBO, Japan) according to the manufacturer's instructions. PCR amplification was performed using the SYBR Green PCR master mix Kit (TOYOBO, Japan). All quantization was normalized to the level of endogenous control GAPDH. The primer sequences for the SYBR green qPCR used were as follows: BRD2-F: 5′-[…]-3′ (SEQ ID NO:10); BRD2-R: 5′-[…]-3′ (SEQ ID NO:11); BRD3-F: 5′-[…]-3′ (SEQ ID NO:12); BRD3-R: 5′-[…]-[…]-3′ (SEQ ID NO:13); BRD4-F: 5′-[…]-GAG-3′ (SEQ ID NO:14); BRD4-F: 5′-[…]-3′ (SEQ ID NO:15); RAC1-F: 5′-[…]-3′ (SEQ ID NO:16); RAC1-R: 5′-[…]-3′ (SEQ ID NO:17); FDFT1-F: 5′-ACTAT-[…]-3′ (SEQ ID NO:18); FDFT1-R: 5′-[…]-[…]-3′ (SEQ ID NO:19); DHCR24-F: 5′-[…]-GAGC-3′ (SEQ ID NO:20); DHCR24-R: 5′-[…]-3′ (SEQ ID NO:21); DHCR7-F: 5′-[…]-3′ (SEQ ID NO:22); DHCR7-R: 5′-[…]-3′ (SEQ ID NO:23); MVD-F: 5′-[…]-3′ (SEQ ID NO:24); MVD-R: 5′-CACAC-[…]-3′ (SEQ ID NO:25); PSA-F: 5′-[…]-[…]-3′ (SEQ ID NO:26); PSA-R: 5′-[…]-3′ (SEQ ID NO:27); TMPRSS2-F: 5′-[…]-3′ (SEQ ID NO:28); TMPRSS2-R: 5′-[…]-3′ (SEQ ID NO:29); MYC-F: 5′-[…]-3′ (SEQ ID NO:30); MYC-R: 5′-CTTGT-[…]-3′ (SEQ ID NO:31); AR-F: 5′-[…]-TCACC-3′ (SEQ ID NO:32); AR-R: 5′-[…]-3′ (SEQ ID NO:33); GAPDH-F: 5′-[…]-3′ (SEQ ID NO:34); and GAPDH-R: 5′-[…]-3′ (SEQ ID NO:35).
On the technique in general: A western blot detects proteins with antibodies after separation by electrophoresis.

The subject of another test is BRD2/3/4 proteins. Description: Western blot of 293T cells transfected with SPOP and BRD2/3/4, with or without MG132. The following applies: 20 μM MG132 for 8 hours. Format: cell-based, human. The procedure:
as §1

In the next test the test system is C4-2 cells. Description: Cell proliferation assay (MTS) and trypan blue assay, C4-2 cells. Format: cell-based, human. To be noted: SPOP-F133V C4-2 cells, GDC-0068 0.2 μM with JQ1 0.25 μM, 5 days. The procedure: CellTiter 96® AQueous One Solution Cell Proliferation Assay (MTS) (Promega) was used to measure cell growth according to the manufacturer's instructions. Briefly, cells were plated in 96-well plates at a density of 2,000 cells per well. At the indicated times, 20 μL of Cell Titer 96R Aqueous One Solution Reagent was added to medium. After incubating for 1 hour at 37° C. in the cell incubator, cell growth was measured in a microplate reader at 490 nm.
Trypan blue assay was performed to measure cell growth according to the manufacturer's instructions. Briefly, cells were plated in 6-well plates at a density of about 5×10^4 to about 1×10^5 cells per well. At the indicated time points, cells were trypsinized and suspended in 1 mL 1×PBS. 100 μL cells and 100 μL trypan blue solution (Sigma-Aldrich) were mixed, and the number of viable cells was measured using the Bio-Rad automated cell counter.

For a further test, the system named is AKT-mTORC1 pathway. Briefly: Western blot of AKT and S6K phosphorylation in C4-2 cells. Format: cell-based, human. The following applies: SPOP-F133V C4-2 cells, GDC-0068 1 μM, 24 hours. The procedure:
as §1

Another test relates to solid tumors. To be noted: patients with solid tumors (Saura et al. 2017); cited from earlier work.
The test system of another test is C4-2 xenograft tumors. Briefly: Prostate cancer xenografts in mice, tumor volume. Format: in vivo. To be noted: SPOP-F133V C4-2 xenografts, GDC-0068 100 mg/kg with JQ1 50 mg/kg, 5 days a week, day 21. The procedure:
6-week-old NOD-SCID IL-2-receptor gamma null (NSG) mice were generated and randomly divided into different experimental groups as indicated. All mice were housed in standard conditions with a 12-hour light/dark cycle and access to food and water ad libitum. For BRD2/3/4 knockdown studies, C4-2 cells (5×10^6), infected with lentivirus expressing empty vector (EV) or HA-SPOP-F133V mutant in combination with control shRNA or BRD2/3/4-specific shRNA, were mixed with Matrigel (in 100 μL 1×PBS plus 100 μL Matrigel (BD Biosciences)) and injected s.c. into the right flank of mice. […] Growth in tumor volume was measured in a blinded fashion using digital caliper, and tumor volumes were estimated using the formula (L×W2)/2, where L is length of tumor and W is width. The volumes of tumors were compared, and P values were determined by a two-tailed Student's t test. Upon the completion of treatment, tumor grafts were harvested. Tumor tissues were divided, and a portion was subjected to FFPE. the rest was frozen for protein and RNA extraction.

Regarding `CC(C)C[C@H](NC(=O)[C@H](Cc1ccccc1)NC(=O)c1cnccn1)B(O)O` [Bortezomib], in the test with BRD2/3/4, the “BRD2/3/4 mRNA expression” value is reported as “not mRNA expression” and the BRD2/3/4 protein level result is “increased BRD2/3/4 protein”.
Turning to `CC(C)C[C@@H](C=O)NC(=O)[C@H](CC(C)C)NC(=O)[C@H](CC(C)C)NC(=O)OCc1ccccc1` [MG132] (Cbz-Leu-Leu-Leu-aldehyde), in the test on BRD2/3/4, the “BRD2/3/4 mRNA expression” value is given as “not mRNA expression” and the BRD2/3/4 protein level result is reported as “increased BRD2/3/4 protein”. The “Effect on the decrease of BRD2/3/4 proteins caused by wild-type SPOP” value with BRD2/3/4 proteins is on record as “completely reversed”.
For `NS(=O)(=O)OC[C@@H]1C[C@@H](n2ccc3c(N[C@H]4CCc5ccccc54)ncnc32)C[C@@H]1O` [MLN4924], the BRD2/3/4 protein level entry with BRD2/3/4 is “caused accumulation of BRD2/3/4 at protein level”.
On to `CC(C)NC[C@@H](C(=O)N1CCN(c2ncnc3c2[C@H](C)C[C@H]3O)CC1)c1ccc(Cl)cc1` [GDC-0068], for which the “SPOP mutation-conferred resistance to BET inhibitor, cells in culture” value in the test on C4-2 cells was “completely overcame”. Further, the “SPOP mutation-induced activation of AKT downstream pathways” value with AKT-mTORC1 pathway is listed as “abolished”. In addition, the “Antitumor efficacy in patients” value in the test with solid tumors is on record as “effective antitumor efficacy”. Also, the “SPOP mutation-conferred resistance to BET inhibitor, tumors in mice” value in the test on C4-2 xenograft tumors was “completely overcame”.
